Laboratory results taken from US8048926B2, “L-DOPA amide derivatives and uses thereof” (Yissum Research Development Company of the Hebrew …, priority 2003, dated 2011).
Where “and” joins values, the source holds several entries; their conditions need not be identical. Identical values can stand only once.

Columns and labels:
DOPA decarboxylase = molecular target: T1, DOPA decarboxylase (Mus musculus, UniProt O88533); assay: DOPA-decarboxylase assay (substrate test); type: biochemical; set-up: activity of DOPA decarboxylase with the substance as substrate: unit not given here; conditions: mouse striatum enzyme
T1 construct: using the mouse striatum as a source of the decarboxylase enzyme; from tissue; host or cells: mouse striatum
T1 sequence (O88533 1-480): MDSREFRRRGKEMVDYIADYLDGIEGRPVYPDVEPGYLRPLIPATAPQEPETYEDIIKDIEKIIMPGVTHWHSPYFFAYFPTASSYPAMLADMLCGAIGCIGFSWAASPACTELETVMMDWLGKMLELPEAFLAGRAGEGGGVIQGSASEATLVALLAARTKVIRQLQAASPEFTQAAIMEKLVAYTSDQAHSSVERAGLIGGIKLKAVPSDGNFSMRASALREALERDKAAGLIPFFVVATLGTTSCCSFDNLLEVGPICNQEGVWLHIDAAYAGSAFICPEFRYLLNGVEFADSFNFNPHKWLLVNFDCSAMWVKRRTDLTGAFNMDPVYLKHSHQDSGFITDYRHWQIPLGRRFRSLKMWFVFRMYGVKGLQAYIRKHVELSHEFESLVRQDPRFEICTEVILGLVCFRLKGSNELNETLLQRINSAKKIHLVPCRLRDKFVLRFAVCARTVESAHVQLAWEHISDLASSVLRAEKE
Description: DOPA-decarboxylase assay: As discussed hereinabove, one of the limitations associated with treatment with L-DOPA is its decarboxylation in the periphery by a DOPA decarboxylase, which reduces the amount the amount of L-DOPA that crosses the BBB.
The assay was carried out according to Hadjiconstantinou et al. [Aromatic L-amino acid decarboxylase activity of mouse striatum is modulated via dopamine receptors. J Neurochem. 1993 June; 60(6):2175-80], using the mouse striatum as a source of the decarboxylase enzyme.
The activity of the DOPA decarboxylase was thus tested with L-DOPA, DOPA-ethyl ester and LDA. L-DOPA ethyl ester (Compound 1), known as a much poorer substrate of the decarboxylase, served as a control was used as a control in these assays.

[1] = cited from earlier work
[2] = cited from earlier work; remark: listed apart in the source
[3] = tested on: unilaterally 6-hydroxydopamine-lesioned male rats; assay: Rotation experiments (rotometer), LDA administered intravenously; type: in vivo, rat; conditions: for CCW (counter clockwise rotations) / CW (clockwise rotations) / CW − CCW: carbidopa 4 mg/kg ip 15 minutes before, one line per rat, preliminary
Description: (§1) The in vivo activity of LDA administered intravenously (iv) and intraperitoneally (ip) was evaluated using rotations experiments, conducted and based in accordance with published studies, as follows:
(§2) Briefly, Dunnet's experiment uses PD induced animal models which are treated with a unilateral lesion to the brain that effects their motorial behavior. In case of rats, they turn away from the side of the lesion when treated with an agent which increases the dopamine brain level. In order to quantify this effect, a device called rotometer is used, which records the circling behavior of the tested rat by counting the number of clockwise (CW) and counter clockwise (CCW) rotations the animal is turning in a hemisphere-shaped bowl which encourages a circling behavior.
(§3) Thus, twenty unilaterally 2,4,5-trihydroxyphenethylamine (6-hydroxydopamine)-lesioned male rats, weighing about 300 grams (obtained from Harlan, Rehovoth Israel) were treated with LDA and carbidopa, as is detailed hereinbelow. […] Pharmacol Toxicol. 93(2):66-70].
(§4) Treatment was performed by intravenously or intraperitoneally administering the LDA.
Intravenous (iv) Experiments: Rats were intravenously injected with 24 mg/kg or 40 mg/kg LDA. All rats received 4 mg/kg carbidopa, intraperitoneally, 15 minutes before LDA administration.

[4] = tested on: unilaterally 6-hydroxydopamine-lesioned male rats; assay: Rotation experiments (rotometer), LDA administered intraperitoneally; type: in vivo, rat
Description: as §1, §2, §3, §4
Intraperitoneal Experiments: Four rats were treated with 6-hydroxydopamine (8 μg/rat). Rats were then administered with carbidopa (4 mg/kg i.p), and 15 minutes thereafter with 15 mg/kg LDA, administered intraperitoneally. Immediately after LDA injection the rotometer was activated and the rats were monitored during 3 hours.

[5] = LDA 15 mg/kg ip, carbidopa 4 mg/kg ip 15 minutes before, monitored during 3 hours, one line per rat, preliminary

activity of DOPA decarboxylase with the substance as substrate (DOPA decarboxylase; Substrate 50 micromoles)	activity of DOPA decarboxylase with the substance as substrate (DOPA decarboxylase; Substrate 100 micromoles)	activity of DOPA decarboxylase with the substance as substrate (DOPA decarboxylase; Substrate 150 micromoles)	activity of DOPA decarboxylase with the substance as substrate (DOPA decarboxylase; Substrate 250 micromoles)	activity of DOPA decarboxylase with the substance as substrate (DOPA decarboxylase; Substrate 500 micromoles)	activity of DOPA decarboxylase with the substance as substrate (DOPA decarboxylase; Substrate 1000 micromoles)	substrate of DOPA decarboxylase, in words (DOPA decarboxylase)	Structure (SMILES)	water solubility [2]	also measured
227	278	328	371	357	350	poor substrate	CCOC(=O)[C@@H](N)Cc1ccc(O)c(O)c1 [Compound 1, L-DOPA ethyl ester]	highly water-soluble	hydrolysis to L-DOPA before reaching the brain ([1]; in vivo): fast hydrolysis
3241	3839	3828	4332	4612	3933		N[C@@H](Cc1ccc(O)c(O)c1)C(=O)O [L-DOPA, 3,4-dihydroxy-L-phenylalanine]	poor water solubility	share of administered levodopa that enters the brain unaltered ([1]; peripheral administration): 1-3%
							NC(=O)[C@@H](N)Cc1ccc(O)c(O)c1 [LDA + Carbidopa]		CCW (counter clockwise rotations) ([3]; LDA 24 mg/kg iv): 128 and 134; CW (clockwise rotations) ([3]; LDA 24 mg/kg iv): 686 and 629; CW − CCW ([3]; LDA 24 mg/kg iv): 558 and 495; CCW (counter clockwise rotations) ([3]; LDA 40 mg/kg iv): 724 and 14 and 59; CW (clockwise rotations) ([3]; LDA 40 mg/kg iv): 1563 and 970 and 573; CW − CCW ([3]; LDA 40 mg/kg iv): 839 and 956 and 514; CCW (counter clockwise rotations) [4, 5]: 22 and 50 and 74 and 109; CW (clockwise rotations) [4, 5]: 56 and 361 and 123 and 111; CW − CCW [4, 5]: 34 and 311 and 49 and 2
						not a substrate	NC(=O)C(N)Cc1ccc(O)c(O)c1 (stereo not drawn) [LDA, α-amino-3,4-dihydroxy-benzenepropanamide]		effect of co-administration of carbidopa on the activity of LDA ([3]; increasing relative amount of carbidopa with respect to LDA): positively affect the activity of LDA; duration of the rotation effect ([3]; intravenous LDA together with carbidopa, data not shown): more than 2 hours; improving the behavior of lesioned animals ([4]; LDA administered intraperitoneally): highly active; activity of the enzyme (formation of dopamine) with the substance as substrate, in words (DOPA decarboxylase; assay performed twice): No activity of the enzyme was detected
